# Measured values published in US20080272062A1, “BROAD SPECTRUM ANTIMICROBIAL PURIFICATION DEVICES AND METHODS FOR PURIFYING FLUIDS” (WATER VISIONS INTERNATIONAL, INC., priority 2006, published 2008).
# Counter-ions that a name gives are not always drawn. Like-named read-outs stand apart in the source and are kept apart here. Marks after values point to notes of the source that are not given here.
# Tests used:
# Porosity to water = type: physicochemical; settings: water head 25 cm, cross-sectional area 2.775 cm^2
# Description: To measure the porosity of the materials to water, samples were placed in a ¾″ inner diameter plastic tube fitted with a plug with a hole in the middle. A wire mesh, on top of the plug, prevented the powder from passing through the plug. Deionized water was passed through the sample until the material was sufficiently packed and a second wire mesh was positioned on top of the sample. Water was added to the tube to a height of 25 centimeters above the plug of material. This height was maintained to plus or minus one cm in order to maintain a constant pressure. The porosity was calculated by calculating the volumetric flow rate (volume/time), multiplying by the cross-sectional area (2.775 cm^2), and dividing by the thickness. Accordingly, the rate should increase proportionally with increases in the cross section and decreases in the thickness.
# [1] = Surface energy, contact angle on dip-coated glass slides; type: physicochemical; design: unit not given here
# Description: Glass slides were cleaned in hot chromic acid, deionized water and blown dry. Two slides were treated with hexamethyldisilazane to lower their surface energy. Solutions of chlorhexidine dihydrate in chloroform/methanol and chlorhexidine in methylene chloride/methanol were prepared. The slides were coated using a dip-coater with a dipping speed of 2.8 mm/min. […] The untreated slides produced very uniform thin films.
# Dry bulk density = type: physicochemical; settings: packed in 50 ml graduated cylinder, vortex agitated
# Description: The materials were loosely packed into tared 50 ml graduated cylinders and agitated with a vortex mixer to further pack the materials in the cylinders. The weight of the material was determined and then divided by the volume of material to determine the bulk density. The larger value for the dihydrate is due to the significant amorphous fraction of the material that is not present in the pure chlorhexidine. The amorphous particles are smaller than crystals and fill the voids between crystals allowing for a greater packing density of particles, […]
# [2] = Solubility in solvents (aliquot dried and weighed); type: physicochemical; settings: for Solubility: 7 days
# Description: A sample of material was placed in a small vial with a few mL of solvent. The solution was stirred by shaking for several hours and then allowed to sit for a week equilibrating.
# A 1 mL aliquot drawn from the solution using an Eppendorf pipette was placed in a weigh boat and dried in an oven. The dried sample was weighed. Measurements of the alcohol and water solvents were taken after three hours of mixing and again after a week. At the three hour measurement, it was necessary to centrifuge the sample in order to separate the solvent solution from the particulate matter.
# [3] = Temperature dependence of solubility in water; type: physicochemical
# Description: The effect of temperature on the solubility of chlorhexidine dihydrate in water was determined by placing a sample of chlorhexidine dihydrate in a 100 mL round bottom flask with 50 mL of deionized water. The round bottom flask contained a stir bar and was placed in an oil bath on a hot plate. The solution was gradually warmed. Aliquots were taken every 15° C. The aliquot was taken from the solution using of a syringe fitted with a micropore filter (Whatman fiberglass filter GF/D, pore size 2.7). The filter separated the solution from the suspended material. The solution was dried in a weigh boat at 60° C. overnight.
# E. coli/bacteria = assay: Pumped flow through chlorhexidine dihydrate treatment device, Aerobic Plate Count; type: cell-based
# Description: Dechlorinated city of Atlanta tap water was inoculated with a culture of E. coli/bacteria and pumped through a 0.25 inch chlorhexidine dihvdrate treatment device at a rate of 1 to 2 L/min up to 80 L. Bacterial recovery was determined by Aerobic Plate Count and is shown in Table 9.
# Accordingly, the reaction of chlorhexidine dihydrate appears to be of a “catalytic” nature. Conversely, typical applications involving soluble chlorhexidine gluconate result in its consumption and approach a second-order reaction. The same is true for most other known antimicrobial agents. Thus, chlorhexidine dehydrate is particularly suitable for use as a purification material.
# [4] = Density by suspension in binary solvent system; type: physicochemical; settings: melted glassy chunk, chlorobenzene/carbon tetrachloride
# Excerpt: Chlorhexidine and chlorhexidine dihydrate were melted on a glass slide heated on a hot plate. These glassy materials easily fractured into large chunks. One of these chunks from each sample was used to determine the density of the material. Using a binary solvent system consisting of chlorobenzene (density 1.102 g/cc) and carbon tetrachloride (density […]), the chunk of material was suspended. The solution was adjusted until the particle remained hovering in mid solution without floating to the surface or sinking to the bottom. The resulting solution was weighed in a 10 mL volumetric flask and the density was calculated. The procedure was repeated at least 4 times for each sample.
# E. coli [5] = assay: Gravity flow of inoculum through chlorhexidine dihydrate particle bed; type: cell-based
# Description: (§1) Columns having a length of 30.48 cm and diameter of 0.75 in were packed with particle beds comprising chlorhexidine dihydrate having lengths of 1.9 cm, 2.5 cm, and 4.1 cm. A 40 mL mixture of inocculum (comprising 35 million B. subtilis, 91 million E. coli, 130 million R. terrigena, and 100 million A. niger) and water was passed by gravity through the chlorhexidine dihydrate particle bed.
# A. niger = assay: as above; type: cell-based
# Description: as §1
# B. subtilis = assay: as above; type: cell-based
# Description: as §1
# R. terrigena = assay: as above; type: cell-based
# Description: as §1
# all microorganisms = assay: Treatment of influent contaminated water stream with particle bed of insoluble chlorhexidine dihydrate; type: cell-based
# Excerpt: The composition of chlorhexidine dihydrate produced mortality in all microorganisms with a minimum or greater mean 10-log reduction upon treatment of an influent contaminated water stream with a particle bed of insoluble chlorhexidine dihydrate. While it is known that soluble chlorhexidine salts are bactericidal for some microorganisms, the purification materials embodied herein require insoluble antimicrobial agents. Thus, the previously known chlorhexidine salts are unacceptable for use in the purification materials embodied herein.
# [6] = Solubility in solvents (aliquot dried and weighed); type: physicochemical; settings: 3 days
# E. coli [7] = assay: Gravity flow of inoculum through chlorhexidine base particle bed; type: cell-based; settings: 40 mL, 6.4 million E. coli, 54 minutes
# Description: A 40 mL mixture of inocculum comprising 6.4 million E. coli and water was passed by gravity flow through a chlorhexidine base particle bed. It took 54 minutes for the fluid to pass through the particle bed.
# [8] = cited from earlier work
# [9] = Water/Ethanol (50:50, 30.0 dyne/cm)
# [10] = Water/Ethanol (70:30, 36.1 dyne/cm)
# [11] = Water/Ethanol (90:10, 51.3 dyne/cm)
# [12] = bed 2.5 cm, flow time 2.0 minutes
# [13] = bed 4.1 cm, flow time 1.5 hours
smiles,measurement,setting,value
"N=C(NCCCCCCNC(=N)NC(=N)Nc1ccc(Cl)cc1)NC(=N)Nc1ccc(Cl)cc1.O.O [Chlorhexidine dihydrate, chlorhexidine dihydrate]",Porosity,Porosity to water,7.55 mL cm^2/min/cm
same,Mean Contact Angle,[1]; Water (72.2 dyne/cm),7.08
same,Mean Contact Angle,[1]; [9],0
same,Mean Contact Angle,[1]; [10],18.44
same,Mean Contact Angle,[1]; [11],13.08
same,Bulk Density,Dry bulk density,0.70 g/cc
same,Solubility,[2]; Chloroform,5600 µg/mL
same,Solubility,[2]; Ethanol,600 µg/mL
same,Solubility,[2]; Ethyl Acetate,10000 µg/mL
same,Solubility,[2]; Iso-propanol,400 µg/mL
same,Solubility,[2]; MIBK,21100 µg/mL
same,Solubility,[2]; Methanol,2800 µg/mL
same,Solubility,[2]; Methylene Chloride,5600 µg/mL
same,Solubility,[2]; Water,<400 µg/mL
same,Solubility (in words),"[2]; hot methanol, chloroform, methylene chloride, and ketones",appreciable solubility
same,Solubility in water,[3]; 30 ° C.,460 µg/mL
same,Solubility in water,[3]; 45 ° C.,740 µg/mL
same,Solubility in water,[3]; 60 ° C.,780 µg/mL
same,Solubility in water,[3]; 75 ° C.,920 µg/mL
same,Solubility in water,[3]; 90 ° C.,890 µg/mL
same,Solubility (in words),[3]; hot and cold water,very limited solubility
same,inactivation of E. coli,"E. coli/bacteria; 1 to 2 L/min up to 80 L, 0.25 inch thickness disc",100%
same,Total Aerobic Plate Count,"E. coli/bacteria; 20 L run through device, untreated 8.6 × 10^8, 1 to 2 L/min",10 # colonies/mL
same,Total Aerobic Plate Count,E. coli/bacteria; 40 L run through device,<10 # colonies/mL
same,Total Aerobic Plate Count,E. coli/bacteria; 60 L run through device,<10 # colonies/mL
same,Total Aerobic Plate Count,E. coli/bacteria; 80 L run through device,<10 # colonies/mL
same,Density,[4],1.266 ± .001 g/cc
same,% Reduction,"E. coli [5]; bed 1.9 cm, flow time 1.0 hour",>99.999%
same,Effluent (1.9 cm),"E. coli [5]; bed 1.9 cm, inoculum 91 × 10^6, flow time 1.0 hour",<1000
same,% Reduction,E. coli [5]; [12],>99.999%
same,Effluent (2.5 cm),"E. coli [5]; bed 2.5 cm, inoculum 91 × 10^6, flow time 2.0 minutes",<1000
same,% Reduction,E. coli [5]; [13],>99.999%
same,Effluent (4.1 cm),"E. coli [5]; bed 4.1 cm, inoculum 91 × 10^6, flow time 1.5 hours",<1000
same,% Reduction,"A. niger; bed 1.9 cm, flow time 1.0 hour",>99.9%
same,Effluent (1.9 cm),"A. niger; bed 1.9 cm, inoculum 100 × 10^6, flow time 1.0 hour",<1000
same,% Reduction,A. niger; [12],99.2%
same,Effluent (2.5 cm),"A. niger; bed 2.5 cm, inoculum 100 × 10^6, flow time 2.0 minutes",8000
same,% Reduction,A. niger; [13],>99.9%
same,Effluent (4.1 cm),"A. niger; bed 4.1 cm, inoculum 100 × 10^6, flow time 1.5 hours",<1000
same,% Reduction,"B. subtilis; bed 1.9 cm, flow time 1.0 hour",>99.997%
same,Effluent (1.9 cm),"B. subtilis; bed 1.9 cm, inoculum 35 × 10^6, flow time 1.0 hour",<1000
same,% Reduction,B. subtilis; [12],99.6%
same,Effluent (2.5 cm),"B. subtilis; bed 2.5 cm, inoculum 35 × 10^6, flow time 2.0 minutes",14 × 10^5
same,% Reduction,B. subtilis; [13],>99.997%
same,Effluent (4.1 cm),"B. subtilis; bed 4.1 cm, inoculum 35 × 10^6, flow time 1.5 hours",<1000
same,% Reduction,"R. terrigena; bed 1.9 cm, flow time 1.0 hour",>99.999%
same,Effluent (1.9 cm),"R. terrigena; bed 1.9 cm, inoculum 130 × 10^6, flow time 1.0 hour",<1000
same,% Reduction,R. terrigena; [12],>99.999%
same,Effluent (2.5 cm),"R. terrigena; bed 2.5 cm, inoculum 130 × 10^6, flow time 2.0 minutes",<1000
same,% Reduction,R. terrigena; [13],>99.999%
same,Effluent (4.1 cm),"R. terrigena; bed 4.1 cm, inoculum 130 × 10^6, flow time 1.5 hours",<1000
same,mean log reduction (mortality in all microorganisms),all microorganisms,≥ 10 log
same,Solubility,[6]; Ethanol,1700 µg/mL
same,Solubility,[6]; Iso-propanol,900 µg/mL
same,Solubility,[6]; Methanol,3600 µg/mL
same,Solubility,[6]; Water,<500 µg/mL
"[H]/N=C(\N/C(=N/[H])NCCCCCCNC(=N)NC(=N)Nc1ccc(Cl)cc1)Nc1ccc(Cl)cc1 [Chlorhexidine hydrochloride, chlorhexidine hydrochloride]",Bulk Density,Dry bulk density,0.15 g/cc
"[H]/N=C(\N/C(=N/[H])NCCCCCCNC(=N)NC(=N)Nc1ccc(Cl)cc1)Nc1ccc(Cl)cc1 [Chlorhexidine, N,N″Bis(4-chlorophenyl)-3,12-diimino-2,4,11,13-tetrazatetradecanediimideamide, reference compound]",Porosity,Porosity to water,3.60 mL cm^2/min/cm
same,Mean Contact Angle,[1]; Water (72.2 dyne/cm),10.28
same,Mean Contact Angle,[1]; [9],0
same,Mean Contact Angle,[1]; [10],13.5
same,Mean Contact Angle,[1]; [11],15.3
same,Bulk Density,Dry bulk density,0.64 g/cc
same,reduction in E. coli,E. coli [7],greater than 99.999%
same,Density,[4],1.270 ± .001 g/cc
same,Solubility,"[8]; reported by Block, Disinfection, Sterilization, and Preservation, 2001",0.0008%
same,Solubility,[8]; reported by Merck Index,0.08%
